How the values were obtained:
Format in all cases: biochemical
CKIε = CKIε (Homo sapiens, UniProt P49674); assay: in vitro kinase assay
[1] = molecular target: casein kinase 1 delta (CKIδ) (Homo sapiens, UniProt P48730); assay: in vitro kinase assay IC50
CKIα = molecular target: T1, CKIα (Homo sapiens, UniProt P48729); assay: in vitro kinase assay
T1 sequence (P48729 2-337): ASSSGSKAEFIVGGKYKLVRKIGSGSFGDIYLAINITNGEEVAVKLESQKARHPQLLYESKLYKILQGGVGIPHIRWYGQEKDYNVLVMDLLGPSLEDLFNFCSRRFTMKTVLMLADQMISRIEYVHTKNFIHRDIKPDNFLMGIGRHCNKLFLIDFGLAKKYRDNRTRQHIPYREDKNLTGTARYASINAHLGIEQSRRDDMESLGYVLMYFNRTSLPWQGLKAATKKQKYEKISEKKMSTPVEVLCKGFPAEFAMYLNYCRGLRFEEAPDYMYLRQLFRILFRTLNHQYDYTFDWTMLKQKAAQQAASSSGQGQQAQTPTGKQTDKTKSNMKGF

Sequence of casein kinase 1 delta (CKIδ) (P48730 whole entry): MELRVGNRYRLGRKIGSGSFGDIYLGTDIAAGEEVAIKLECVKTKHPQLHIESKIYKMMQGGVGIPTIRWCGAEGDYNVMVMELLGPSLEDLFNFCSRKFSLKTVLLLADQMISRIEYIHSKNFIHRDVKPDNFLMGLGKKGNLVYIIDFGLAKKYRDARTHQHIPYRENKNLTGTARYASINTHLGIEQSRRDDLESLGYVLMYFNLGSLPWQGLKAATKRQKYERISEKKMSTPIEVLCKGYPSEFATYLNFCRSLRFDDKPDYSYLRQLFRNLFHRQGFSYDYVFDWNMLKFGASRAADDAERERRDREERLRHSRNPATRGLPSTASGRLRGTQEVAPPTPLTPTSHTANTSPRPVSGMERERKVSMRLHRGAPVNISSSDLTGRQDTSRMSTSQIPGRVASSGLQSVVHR
Sequence of CKIε (P49674 whole entry): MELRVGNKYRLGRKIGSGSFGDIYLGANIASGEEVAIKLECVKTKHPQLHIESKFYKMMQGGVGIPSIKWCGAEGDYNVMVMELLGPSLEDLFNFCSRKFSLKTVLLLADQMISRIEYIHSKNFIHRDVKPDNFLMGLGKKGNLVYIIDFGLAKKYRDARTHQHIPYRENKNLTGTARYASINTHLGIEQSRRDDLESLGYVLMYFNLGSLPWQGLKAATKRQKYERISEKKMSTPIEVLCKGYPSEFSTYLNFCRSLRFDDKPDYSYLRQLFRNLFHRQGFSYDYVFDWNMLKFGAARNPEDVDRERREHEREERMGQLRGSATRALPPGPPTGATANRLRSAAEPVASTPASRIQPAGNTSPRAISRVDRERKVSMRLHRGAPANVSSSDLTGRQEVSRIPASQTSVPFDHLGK

Q: With `Cc1cc2sc(NC(=O)Cc3ccccc3)nc2cc1Cl` [LH846] as the compound, how does the IC50 (CKIε) read?
A: Its IC50 is 1300 nM.

Q: What about the IC50 [1] of the same compound?
A: The IC50 was 290 nM.

Q: And the IC50 (CKIα)?
A: Its IC50 is 2500 nM.
